# Measurements as given in patent US20160002247A1, “8-SUBSTITUTED IMIDAZOPYRIMIDINONE DERIVATIVE HAVING AUTOTAXIN INHIBITORY ACTIVITY” (THE UNIVERSITY OF TOKYO, priority 2013, published 2016).
# Target: T1, Human autotaxin enzyme (Homo sapiens, UniProt Q13822)
# T1 construct: purchased R&D System
# Assay: Evaluation of autotaxin inhibitor, Method C (Test Example 3): 18:0 Lyso PC, choline assay, Resorufin fluorescence
# Assay type: biochemical
# Settings: Assay Method C (Test Example 3), human autotaxin, 18:0 Lyso PC substrate; read-out: Inhibitory Activity (autotaxin enzyme inhibitory activity, IC50 class)
# Procedure, shortened: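 Choline-coupled fluorescence readout (20 min, resorufin at 531/598 nm) followed a 2 h room-temperature reaction of human autotaxin with 18:0 Lyso PC substrate (added as 200 μM solution) in pH 7.5 Tris buffer containing MgCl2 and Triton X-100. Percent inhibition scaled to no-compound (0%) and no-enzyme (100%) wells and plotted versus concentration.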
row,SMILES,IC50
1,CCCCCn1c(OC)cc(=O)n2cc(-c3ccc(Cl)cc3)nc12 [Compound 558],100 to 1000 nM
2,CCCCCn1c(N2C[C@H](F)C[C@H]2C(=O)O)cc(=O)n2cc(-c3ccc(Cl)cc3)nc12 [Compound 587],> 1000 nM
3,CCCCCn1c(N2CCC[C@H]2C(=O)N[C@H]2CCCCNC2=O)cc(=O)n2cc(-c3ccc(Cl)cc3)nc12 [Compound 707],100 to 1000 nM
4,CCCCCn1c(N2CCN(C(=O)OC(C)(C)C)CC2)cc(=O)n2cc(-c3ccc(Cl)cc3)nc12 [Compound 682],100 to 1000 nM
5,CCCCCn1c(-c2cccc(C(=O)NCc3ccccc3)c2)cc(=O)n2cc(-c3ccc(Cl)cc3)nc12 [Compound 428],100 to 1000 nM
6,CCCCCn1c(N2CCC[C@H]2C(=O)NCCCN)cc(=O)n2cc(-c3ccc(Cl)cc3)nc12 [Compound 352],> 1000 nM
7,CCCCCn1c(NC(C)=O)cc(=O)n2cc(-c3ccc(Cl)cc3)nc12 [Compound 333],100 to 1000 nM
8,CCCCCn1c(N2CCCC[C@@H]2C(=O)O)cc(=O)n2cc(-c3ccc(Cl)cc3)nc12 [Compound 612],100 to 1000 nM
9,CCCCCn1c(/N=C(\C)OCCCOCOC)cc(=O)n2cc(-c3ccc(Cl)cc3)nc12 [Compound 563],100 to 1000 nM
10,CCCCCn1c(/N=C(\C)OCCC)cc(=O)n2cc(-c3ccc(Cl)cc3)nc12 [Compound 561],> 1000 nM
11,CCCCCn1c(-c2cccc(NS(C)(=O)=O)c2)cc(=O)n2cc(-c3ccc(Cl)cc3)nc12 [Compound 441],100 to 1000 nM
12,CCCCCn1c(N2CCCC2c2ccccc2)cc(=O)n2cc(-c3ccc(Cl)cc3)nc12 (centres unmarked) [Compound 306],10 to 100 nM
13,CCCCCn1c(N2CCC[C@H]2C(=O)N2CCNC(=O)CC2)cc(=O)n2cc(-c3ccc(Cl)cc3)nc12 [Compound 698],10 to 100 nM
14,CCCCCn1c(N2CCCCC2CCO)cc(=O)n2cc(-c3ccc(Cl)cc3)nc12 (centres unmarked) [Compound 302],10 to 100 nM
15,CCCCCn1c(C2=CCC(C(=O)O)CC2)cc(=O)n2cc(-c3ccc(Cl)cc3)nc12 (centres unmarked) [Compound 557],10 to 100 nM
16,CCCCCn1c(N(C)Cc2ccc(C(=O)O)cc2)cc(=O)n2cc(-c3ccc(Cl)cc3)nc12 [Compound 197],10 to 100 nM
17,CCCCCn1c(-c2ccc(C(=O)NCC(C)=O)cc2)cc(=O)n2cc(-c3ccc(Cl)cc3)nc12 [Compound 500],10 to 100 nM
18,CCCCCn1c(N2CCC[C@H]2C(=O)NC2CCNC2=O)cc(=O)n2cc(-c3ccc(Cl)cc3)nc12 (some centres unmarked) [Compound 700],10 to 100 nM
19,CCCCCn1c(N2CCC[C@H]2C(=O)N[C@H]2CCNC2=O)cc(=O)n2cc(-c3ccc(Cl)cc3)nc12 [Compound 708],10 to 100 nM
20,CCCCCn1c(N2CCC[C@H]2C(=O)NCC(=O)C(C)(C)C)cc(=O)n2cc(-c3ccc(Cl)cc3)nc12 [Compound 706],10 to 100 nM
21,CCCCCn1c(N2CCC[C@H]2C(=O)N[C@@H](Cc2c[nH]cn2)C(=O)O)cc(=O)n2cc(-c3ccc(Cl)cc3)nc12 [Compound 721],10 to 100 nM
22,CCCCCn1c(N2CCNC[C@H]2C(=O)O)cc(=O)n2cc(-c3ccc(Cl)cc3)nc12 [Compound 660],> 1000 nM

# More lines, now with the values ahead:
row,IC50,SMILES
1,10 to 100 nM,CCCCCn1c(-c2ccc(C(=O)NCCCOC)cc2)cc(=O)n2cc(-c3ccc(Cl)cc3)nc12 [Compound 479]
2,< 10 nM,CCCCCn1c(N2CCC[C@H]2C(=O)NCCC(=O)O)cc(=O)n2cc(-c3ccc(Cl)cc3)nc12 [Compound 326]
3,10 to 100 nM,CCCCCn1c(-c2ccc(C(=O)NCCCO)cc2)cc(=O)n2cc(-c3ccc(Cl)cc3)nc12 [Compound 481]
4,10 to 100 nM,CCCCCn1c(-c2ccc3ncsc3c2)cc(=O)n2cc(-c3ccc(Cl)cc3)nc12 [Compound 450]
5,< 10 nM,CCCCCn1c(N2CCC[C@H]2C(=O)N(CC(=O)O)Cc2ccccc2)cc(=O)n2cc(-c3ccc(Cl)cc3)nc12 [Compound 736]
6,10 to 100 nM,CCCCCn1c(N(C)CC(=O)NCCC(=O)O)cc(=O)n2cc(-c3ccc(Cl)cc3)nc12 [Compound 618]
7,10 to 100 nM,CCCCCn1c(N2CCNC[C@@H]2C(=O)NCC(=O)O)cc(=O)n2cc(-c3ccc(Cl)cc3)nc12 [Compound 666]
8,10 to 100 nM,CCCCCn1c(-c2ccc(C(=O)NCc3ccc(N4CCOCC4)cc3)cc2)cc(=O)n2cc(-c3ccc(Cl)cc3)nc12 [Compound 509]
9,10 to 100 nM,CCn1c(N2CCC[C@H]2C(=O)NC(C)(C)C(=O)O)cc(=O)n2cc(-c3ccc(Cl)cc3)nc12 [Compound 759]
10,10 to 100 nM,CCCCCn1c(N2CCCC(CC(=O)O)C2)cc(=O)n2cc(-c3ccc(Cl)cc3)nc12 (centres unmarked) [Compound 319]
11,< 10 nM,CC(C)(C)[C@H](NC(=O)[C@@H]1C[C@@H](O)CN1c1cc(=O)n2cc(-c3ccc(Cl)cc3)nc2n1Cc1ccccc1)C(=O)O [Compound 752]
12,10 to 100 nM,CCCCCn1c(-c2ccc(C(=O)NC(C)(C)CO)cc2)cc(=O)n2cc(-c3ccc(Cl)cc3)nc12 [Compound 477]
13,10 to 100 nM,CCCCCn1c(-c2ccc(C(=O)NCc3ccccn3)cc2)cc(=O)n2cc(-c3ccc(Cl)cc3)nc12 [Compound 507]
14,10 to 100 nM,CCCCCn1c(-c2ccc(C(=O)N3CCN(S(C)(=O)=O)CC3)cc2)cc(=O)n2cc(-c3ccc(Cl)cc3)nc12 [Compound 498]
15,10 to 100 nM,O=C(NCCN1CC2(COC2)C1)c1ccc(-c2cc(=O)n3cc([C@H]4CC[C@H](C(F)(F)F)CC4)nc3n2CCCC(F)(F)F)cc1 [Compound 165]
16,10 to 100 nM,CCCCCn1c(N2CCC[C@H]2C(=O)NCCCCN2CCN(C)CC2)cc(=O)n2cc(-c3ccc(Cl)cc3)nc12 [Compound 652]

row,IC50,SMILES
1,10 to 100 nM,CCCCCn1c(-c2cccnc2)cc(=O)n2cc(-c3ccc(Cl)cc3)nc12 [Compound 407]
2,< 10 nM,CCCCCn1c(N(Cc2ccc(C(=O)O)cc2)C(C)=O)cc(=O)n2cc(-c3ccc(Cl)cc3)nc12 [Compound 569]
3,10 to 100 nM,CCCCCn1c(-c2ccc(C(=O)NCCF)cc2)cc(=O)n2cc(-c3ccc(Cl)cc3)nc12 [Compound 475]
4,10 to 100 nM,"CCCCCn1c(-c2ccc(C(=O)O)cc2)cc(=O)n2cc(-c3ccc(Cl)cc3)nc12 [Compound 362, 4-(2-(4-chlorophenyl)-5-oxo-8-pentyl-5,8-dihydroimidazo[1,2-a]pyrimidin-7-yl)benzoic acid]"
5,< 10 nM,CCCCCn1c(-c2ccc(C(=O)NCC(O)CO)cc2)cc(=O)n2cc(-c3ccc(Cl)cc3)nc12 (centres unmarked) [Compound 487]
6,10 to 100 nM,CCCCCn1c(-c2ccc(C(=O)NCC(=O)N(C)C)cc2)cc(=O)n2cc(-c3ccc(Cl)cc3)nc12 [Compound 496]
7,10 to 100 nM,CCCCCn1c(-c2ccc(C(=O)N(C)CCO)cc2)cc(=O)n2cc(-c3ccc(Cl)cc3)nc12 [Compound 476]
8,10 to 100 nM,CCCCCn1c(-c2ccc(C(=O)Nc3ccccc3)cc2)cc(=O)n2cc(-c3ccc(Cl)cc3)nc12 [Compound 469]
9,10 to 100 nM,CCCCCn1c(-c2ccc(C(=O)NC3CCS(=O)(=O)CC3)cc2)cc(=O)n2cc(-c3ccc(Cl)cc3)nc12 [Compound 493]
10,10 to 100 nM,CCCCCn1c(-c2ccc(C(=O)NCc3ccc(S(C)(=O)=O)cc3)cc2)cc(=O)n2cc(-c3ccc(Cl)cc3)nc12 [Compound 519]
11,< 10 nM,CCCCCn1c(N2CCC[C@H]2C(=O)N[C@H](CCCC)C(=O)O)cc(=O)n2cc(-c3ccc(Cl)cc3)nc12 [Compound 738]
12,10 to 100 nM,CCn1c(N2C[C@H](O)C[C@H]2C(=O)N[C@@H](CCc2ccccc2)C(=O)O)cc(=O)n2cc(-c3ccc(Cl)cc3)nc12 [Compound 763]
13,10 to 100 nM,CCCCCn1c(N2CC[C@H](C(=O)O)C2)cc(=O)n2cc(-c3ccc(Cl)cc3)nc12 [Compound 670]
14,< 10 nM,CCCCCn1c(N2CCC[C@H]2C(=O)N[C@@H](CC(C)(C)C)C(=O)O)cc(=O)n2cc(-c3ccc(Cl)cc3)nc12 [Compound 730]
15,< 10 nM,CCCCCn1c(N2CCC[C@H]2C(=O)N[C@@H](CC)C(=O)O)cc(=O)n2cc(-c3ccc(Cl)cc3)nc12 [Compound 729]

# Same assay, conditions: Assay Method C, human autotaxin, 18:0 Lyso PC substrate; read-out: Inhibitory Activity
row,IC50,SMILES
1,> 1000 nM,CCCCCn1c(N2CCC[C@@H](C)C2)cc(=O)n2cc(-c3ccc(Cl)cc3)nc12 [Compound 811]
2,> 1000 nM,O=C(Cc1cn(CCCC(F)(F)F)c2nc(-c3ccc(Cl)cc3)cn2c1=O)NCC(O)CO (centres unmarked) [Compound 844]
3,> 1000 nM,CC(C)(O)CNC(=O)Cc1cn(CCCC(F)(F)F)c2nc(-c3ccc(Cl)cc3)cn2c1=O [Compound 857]
4,100 to 1000 nM,CCCCCn1c(N2CCC[C@H]2C(=O)NCC(O)C(F)(F)F)cc(=O)n2cc(-c3ccc(Cl)cc3)nc12 (some centres unmarked) [Compound 785]
5,> 1000 nM,O=C1CN(C(=O)Cc2cn(CCCC(F)(F)F)c3nc(-c4ccc(Cl)cc4)cn3c2=O)CCN1 [Compound 847]
6,> 1000 nM,CCCCCn1c(N2CCCCC2CC)cc(=O)n2cc(-c3ccc(Cl)cc3)nc12 (centres unmarked) [Compound 802]
7,100 to 1000 nM,O=C1CCN(C(=O)Cc2cn(CCCC(F)(F)F)c3nc(-c4ccc(Cl)cc4)cn3c2=O)C1 [Compound 860]
8,10 to 100 nM,CCCCCn1c(N2CCC[C@H]2C(=O)NCC(=O)OC)cc(=O)n2cc(-c3ccc(Cl)cc3)nc12 [Compound 816]
9,100 to 1000 nM,CCCCCn1c(N2CCCCC2CCN2CCOCC2)cc(=O)n2cc(-c3ccc(Cl)cc3)nc12 (centres unmarked) [Compound 805]
10,> 1000 nM,CCCCCn1c(N2CCCC(C)(C)C2)cc(=O)n2cc(-c3ccc(Cl)cc3)nc12 [Compound 804]
11,100 to 1000 nM,N#CCNC(=O)Cc1cn(CCCC(F)(F)F)c2nc(-c3ccc(Cl)cc3)cn2c1=O [Compound 829]
12,> 1000 nM,NS(=O)(=O)CCNC(=O)Cc1cn(CCCC(F)(F)F)c2nc(-c3ccc(Cl)cc3)cn2c1=O [Compound 855]
13,> 1000 nM,CCCCCn1c(N2CCCC[C@@H]2C)cc(=O)n2cc(-c3ccc(Cl)cc3)nc12 [Compound 808]
14,> 1000 nM,CN(CC(O)CO)C(=O)Cc1cn(CCCC(F)(F)F)c2nc(-c3ccc(Cl)cc3)cn2c1=O (centres unmarked) [Compound 854]

row,SMILES,IC50
1,O=C(Cc1cn(CCCC(F)(F)F)c2nc(-c3ccc(Cl)cc3)cn2c1=O)N1CCN(CCO)CC1 [Compound 853],> 1000 nM
